Test results from ChEMBL document CHEMBL4261580, “Novel antitumor compound optimized from natural saponin Albiziabioside A induced caspase-dependent apoptosis and ferroptosis as a p53 activator through the mitochondrial pathway” (Eur J Med Chem, 2018).
The source made the active and inactive calls. The calls are words filed in the database; no cut-off is given here.

Legend:
HCT-8 = experiment: Antiproliferative activity against human HCT8 cells after 72 hrs by MTT assay; format: functional, cell-based; conditions: HCT-8, 72 h
HCT-116 [1] = experiment: Induction of apoptosis in human HCT116 cells assessed as late apoptotic cells at 5 uM after 72 hrs by Annexin V-FITC/propidium iodide staining-based flow cytometric analysis (reference value: 1.08%); format: functional
HCT-116 [2] = experiment: Induction of intracellular ROS generation in human HCT116 cells at 0.31 uM after 72 hrs by DCF-DA-dye based fluorescence microscopy (reference value: 2.74%); format: functional
HCT-116 [3] = experiment: Cytotoxicity against human HCT116 cells pretreated with Mg2+ followed by compound addition up to 5 uM measured after 72 hrs by MTT assay; format: functional, cell-based
HCT-116 [4] = experiment: Cytotoxicity against human HCT116 cells up to 5 uM after 72 hrs in presence of caspase inhibitor z-VAD-fmk by MTT assay; format: functional, cell-based
Mus musculus [5] = experiment: Toxicity in BALB/c nude mouse xenografted with human HCT116 cells assessed as abnormality in heart at 10 to 20 mg/kg, iv administered once per day by hematoxylin and eosin staining-based microscopic method; format: organism-based; conditions: in vivo
HCT-116 [6] = experiment: Cytotoxicity against human HCT116 cells pretreated with Mn2+ followed by compound addition up to 5 uM measured after 72 hrs by MTT assay; format: functional, cell-based
HCT-116 [7] = experiment: Induction of intracellular ROS generation in human HCT116 cells at 1.25 uM after 72 hrs by DCF-DA-dye based fluorescence microscopy (reference value: 2.74%); format: functional
MGC-803 = experiment: Antiproliferative activity against human MGC803 cells after 72 hrs by MTT assay; format: functional, cell-based; conditions: MGC-803, 72 h
HCT-116 [8] = experiment: Induction of intracellular ROS generation in human HCT116 cells at 5 uM after 72 hrs by DCF-DA-dye based fluorescence microscopy (reference value: 2.74%); format: functional
HCT-116 [9] = experiment: Induction of apoptosis in human HCT116 cells assessed as viable cells at 5 uM after 72 hrs by Annexin V-FITC/propidium iodide staining-based flow cytometric analysis (reference value: 92.86%); format: functional; conditions: HCT-116, 72 h, read-out: Activity
HaCaT = experiment: Antiproliferative activity against human HaCaT cells after 72 hrs by MTT assay; format: cell-based
HCT-116 [10] = experiment: Induction of apoptosis in human HCT116 cells assessed as viable cells at 0.31 uM after 72 hrs by Annexin V-FITC/propidium iodide staining-based flow cytometric analysis (reference value: 92.86%); format: functional; conditions: HCT-116, 72 h, read-out: Activity
Mus musculus [11] = experiment: Toxicity in BALB/c nude mouse xenografted with human HCT116 cells assessed as abnormality in lung at 10 to 20 mg/kg, iv administered once per day by hematoxylin and eosin staining-based microscopic method; format: organism-based; conditions: in vivo
Mus musculus [12] = experiment: Toxicity in BALB/c nude mouse xenografted with human HCT116 cells assessed as change in body weight at 10 to 20 mg/kg, iv administered once per day for 14 days and measured every 2 days; format: organism-based; conditions: in vivo
HCT-116 [13] = experiment: Disruption of mitochondrial membrane potential in human HCT116 cells assessed as collapse of mitochondrial membrane potential at 5 uM after 72 hrs by JC1 staining-based flow cytometry method (reference value: […]); format: functional
[14] = Antiproliferative activity against human HBMEC cells after 72 hrs by MTT assay; format: cell-based
HCT-116 [15] = experiment: Disruption of mitochondrial membrane potential in human HCT116 cells assessed as collapse of mitochondrial membrane potential at 1.25 uM after 72 hrs by JC1 staining-based flow cytometry method (reference value: […]); format: functional
HCT-116 [16] = experiment: Cytotoxicity against human HCT116 cells pretreated with Al3+ followed by compound addition up to 5 uM measured after 72 hrs by MTT assay; format: functional, cell-based
L02 = experiment: Antiproliferative activity against human LO2 cells after 72 hrs by MTT assay; format: cell-based; conditions: L02, 72 h
HCT-116 [17] = experiment: Induction of apoptosis in human HCT116 cells assessed as late apoptotic cells at 1.25 uM after 72 hrs by Annexin V-FITC/propidium iodide staining-based flow cytometric analysis (reference value: 1.08%); format: functional
HCT-116 [18] = experiment: Induction of apoptosis in human HCT116 cells after 72 hrs by Annexin V-FITC/propidium iodide staining-based flow cytometric analysis; format: functional, cell-based
HCT-116 [19] = experiment: Cytotoxicity against human HCT116 cells pretreated with Cu2+ followed by compound addition up to 5 uM measured after 72 hrs by MTT assay; format: functional, cell-based
HCT-116 [20] = experiment: Cytotoxicity in human HCT116 cells pretreated with Fe2+ followed by compound addition up to 5 uM measured after 72 hrs by MTT assay; format: functional, cell-based
HCT-116 [21] = experiment: Cytotoxicity against human HCT116 cells pretreated with ferrostatin-1 followed by compound addition up to 5 uM measured after 72 hrs by MTT assay; format: functional, cell-based
HCT-116 [22] = experiment: Disruption of mitochondrial membrane potential in human HCT116 cells assessed as intact mitochondrial membrane at 0.31 uM after 72 hrs by JC1 staining-based flow cytometry method (reference value: 0.33%); format: functional
HCT-116 [23] = experiment: Induction of apoptosis in human HCT116 cells assessed as necrotic cells at 5 uM after 72 hrs by Annexin V-FITC/propidium iodide staining-based flow cytometric analysis (reference value: 0.76%); format: functional
HCT-116 [24] = experiment: Induction of apoptosis in human HCT116 cells assessed as late apoptotic cells at 0.31 uM after 72 hrs by Annexin V-FITC/propidium iodide staining-based flow cytometric analysis (reference value: 1.08%); format: functional
HCT-116 [25] = experiment: Effect on caspase-8 expression in human HCT116 cells up to 5 uM after 48 hrs by Western blot analysis; format: functional, cell-based
HCT-116 [26] = experiment: Disruption of mitochondrial membrane potential in human HCT116 cells assessed as intact mitochondrial membrane at 1.25 uM after 72 hrs by JC1 staining-based flow cytometry method (reference value: 0.33%); format: functional
HCT-116 [27] = experiment: Induction of apoptosis in human HCT116 cells assessed as early apoptotic cells at 5 uM after 72 hrs by Annexin V-FITC/propidium iodide staining-based flow cytometric analysis (reference value: 5.30%); format: functional
BEAS-2B = experiment: Antiproliferative activity against human BEAS2B cells after 72 hrs by MTT assay; format: functional, cell-based
A549 = experiment: Antiproliferative activity against human A549 cells after 72 hrs by MTT assay; format: functional, cell-based; conditions: A549, 72 h
HCT-116 [28] = experiment: Cytotoxicity in human HCT116 cells pretreated with DFO followed by compound addition up to 5 uM measured after 72 hrs by MTT assay; format: functional, cell-based
[29] = biological target: Cellular tumor antigen p53 (Homo sapiens) (UniProt P04637); experiment: Activation of p53 in human HCT116 cells assessed as upregulation of p53 expression after 48 hrs by Western blot analysis; format: cell-based
Cellular tumor antigen p53 (Homo sapiens), sequence (P04637 whole entry, looked up): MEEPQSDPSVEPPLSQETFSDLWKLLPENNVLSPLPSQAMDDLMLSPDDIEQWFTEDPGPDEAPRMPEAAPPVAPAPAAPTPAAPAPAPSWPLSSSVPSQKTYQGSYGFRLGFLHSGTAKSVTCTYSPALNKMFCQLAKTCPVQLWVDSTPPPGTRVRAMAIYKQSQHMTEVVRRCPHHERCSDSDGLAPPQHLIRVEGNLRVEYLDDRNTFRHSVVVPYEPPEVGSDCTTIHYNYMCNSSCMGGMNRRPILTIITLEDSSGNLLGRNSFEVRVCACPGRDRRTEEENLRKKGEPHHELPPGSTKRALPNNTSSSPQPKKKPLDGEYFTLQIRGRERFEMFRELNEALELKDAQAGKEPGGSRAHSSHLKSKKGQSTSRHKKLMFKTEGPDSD

HCT-116 [30] = experiment: Antitumor activity against human HCT116 cells xenografted in BALB/c nude mouse assessed as decrease in tumor weight at 20 mg/kg, iv administered once per day for 14 days and measured every 2 days; format: functional; design: scale not given: the % may be the effect or the level left
HCT-116 [31] = experiment: Induction of lipid peroxidation in human HCT116 cells assessed as increase in MDA levels up to 5 uM; format: functional
Mus musculus [32] = experiment: Toxicity in BALB/c nude mouse xenografted with human HCT116 cells assessed as abnormality in liver at 10 to 20 mg/kg, iv administered once per day by hematoxylin and eosin staining-based microscopic method; format: organism-based; conditions: in vivo

SMILES: CC(=O)N[C@H]1[C@H](O[C@H]2CC[C@]3(C)[C@H]4CC=C5[C@@H]6CC(C)(C)CC[C@]6(C(=O)OCc6cn(-c7cccc(C(C)=O)c7)nn6)CC[C@@]5(C)[C@]4(C)CC[C@H]3C2(C)C)O[C@H](CO[C@@H]2OC[C@H](O)[C@H](O)[C@@H]2O)[C@@H](O)[C@@H]1O
- IC50 (HCT-8): 6.78 µM
- Activity (HCT-116 [1]): 20.33%
- Activity (HCT-116 [2]): 12.87%
- Activity (HCT-116 [3]): Active
- Activity (HCT-116 [4]): inactive
- Activity (Mus musculus [5]): Non-Toxic
- Activity (HCT-116 [6]): Active
- Activity (HCT-116 [7]): 20.35%
- IC50 (MGC-803): 7.35 µM
- Activity (HCT-116 [8]): 29.71%
- viability at 5 µM (HCT-116 [9]): 38.5%
- IC50 (HaCaT): 37.1 µM
- viability at 0.31 µM (HCT-116 [10]): 78.9%
- Activity (Mus musculus [11]): Non-Toxic
- Activity (Mus musculus [12]): Non-Toxic
- Activity (HCT-116 [13]): 59.87%
- IC50 [14]: 32.2 µM
- Activity (HCT-116 [15]): 77.36%
- Activity (HCT-116 [16]): Active
- IC50 (L02): 33.2 µM
- Activity (HCT-116 [17]): 26.18%
- Activity (HCT-116 [18]): Dose-dependent effect
- Activity (HCT-116 [19]): Active
- Activity (HCT-116 [20]): Active
- Activity (HCT-116 [21]): inactive
- Activity (HCT-116 [22]): 10.97%
- Activity (HCT-116 [23]): 1.86%
- Activity (HCT-116 [24]): 12.51%
- Activity (HCT-116 [25]): inactive
- Activity (HCT-116 [26]): 22.64%
- Activity (HCT-116 [27]): 39.27%
- IC50 (BEAS-2B): 20.2 µM
- IC50 (A549): 9.18 µM
- Activity (HCT-116 [28]): inactive
- Activity [29]: Dose-dependent effect
- Activity (HCT-116 [30]): 71.8%
- fold change (FC) (HCT-116 [31]): >2
- Activity (Mus musculus [32]): Non-Toxic
